# Experimental data: ChEMBL document CHEMBL5143628, “Enteroviral replication inhibition by N-Alkyl triazolopyrimidinone derivatives through a non-capsid binding mode” (Bioorg Med Chem Lett, 2022)
# Columns and labels:
# CYP2C19 = CYP2C19 (Homo sapiens, UniProt P33261); assay: Inhibition of human CYP2C19 at 10 uM incubated for 20 mins in presence of NADPH regenerating system by luminescence assay relative to control; format: ADME
# CYP2C9 = CYP2C9 (Homo sapiens, UniProt P11712); assay: Inhibition of human CYP2C9 at 10 uM incubated for 20 mins in presence of NADPH regenerating system by luminescence assay relative to control; format: ADME
# Chain of CYP2C9 (P11712 whole entry): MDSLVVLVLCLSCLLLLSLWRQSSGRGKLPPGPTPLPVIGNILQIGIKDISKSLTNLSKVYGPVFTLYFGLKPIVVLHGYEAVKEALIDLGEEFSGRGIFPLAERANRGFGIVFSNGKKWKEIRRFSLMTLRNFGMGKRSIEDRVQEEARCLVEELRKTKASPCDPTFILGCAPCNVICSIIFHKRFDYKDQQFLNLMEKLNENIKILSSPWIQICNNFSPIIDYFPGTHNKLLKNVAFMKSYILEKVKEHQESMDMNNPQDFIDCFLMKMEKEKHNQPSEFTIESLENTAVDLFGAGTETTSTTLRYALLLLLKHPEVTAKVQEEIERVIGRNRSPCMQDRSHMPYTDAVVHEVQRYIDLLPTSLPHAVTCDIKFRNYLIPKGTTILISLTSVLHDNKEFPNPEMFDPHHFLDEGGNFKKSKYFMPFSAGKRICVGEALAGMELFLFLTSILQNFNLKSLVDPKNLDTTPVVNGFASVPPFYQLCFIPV
# [1] = Selectivity index, ratio of CC50 for cytotoxicity against human H1-HeLa cells to EC50 for antiviral activity against Human rhinovirus A21 infected in human H1-HeLa cells; format: toxicity, cell-based; details: for selectivity ratio: H1-HeLa cells, read-out: Ratio CC50/EC50
# [2] = (§1) Cytotoxicity against human H1-HeLa cells assessed as reduction in cell viability by MTT assay; format: toxicity, cell-based; details: H1-HeLa cells
# [3] = Selectivity index, ratio of CC50 for cytotoxicity against human H1-HeLa cells to EC50 for antiviral activity against Human rhinovirus A71 infected in human H1-HeLa cells; format: toxicity, cell-based; details: for selectivity ratio: H1-HeLa cells, read-out: Ratio CC50/EC50
# rhinovirus B14 = assay: Antiviral activity against Human rhinovirus B14 infected in human H1-HeLa cells assessed as reduction in virus induced cytopathic effect incubated for 3 days by MTT assay; format: functional, organism-based
# [4] = Antiviral activity against Human rhinovirus A71 infected in human H1-HeLa cells assessed as reduction in virus induced cytopathic effect incubated for 3 days by MTT assay; format: functional, cell-based
# rhinovirus A21 = assay: Antiviral activity against Human rhinovirus A21 infected in human H1-HeLa cells assessed as reduction in virus induced cytopathic effect incubated for 3 days by MTT assay; format: functional, organism-based
# [5] = Selectivity index, ratio of CC50 for cytotoxicity against human H1-HeLa cells to EC50 for antiviral activity against Human rhinovirus B14 infected in human H1-HeLa cells; format: toxicity, cell-based; details: for selectivity ratio: H1-HeLa cells, read-out: Ratio CC50/EC50
# H1-HeLa = assay: as §1; format: toxicity, cell-based; details: h1-hela
# Coxsackievirus B1 = assay: Antiviral activity against Human coxsackievirus B1 infected in human H1-HeLa cells assessed as reduction in virus induced cytopathic effect incubated for 2 days by MTT assay; format: functional, organism-based; details: Enterovirus B, 48 h
# Poliovirus 3 = assay: Antiviral activity against Human poliovirus 3 infected in human H1-HeLa cells assessed as reduction in virus induced cytopathic effect incubated for 2 days by MTT assay; format: functional, organism-based; details: Enterovirus C, 48 h
# Chain of CYP2C19 (P33261 whole entry): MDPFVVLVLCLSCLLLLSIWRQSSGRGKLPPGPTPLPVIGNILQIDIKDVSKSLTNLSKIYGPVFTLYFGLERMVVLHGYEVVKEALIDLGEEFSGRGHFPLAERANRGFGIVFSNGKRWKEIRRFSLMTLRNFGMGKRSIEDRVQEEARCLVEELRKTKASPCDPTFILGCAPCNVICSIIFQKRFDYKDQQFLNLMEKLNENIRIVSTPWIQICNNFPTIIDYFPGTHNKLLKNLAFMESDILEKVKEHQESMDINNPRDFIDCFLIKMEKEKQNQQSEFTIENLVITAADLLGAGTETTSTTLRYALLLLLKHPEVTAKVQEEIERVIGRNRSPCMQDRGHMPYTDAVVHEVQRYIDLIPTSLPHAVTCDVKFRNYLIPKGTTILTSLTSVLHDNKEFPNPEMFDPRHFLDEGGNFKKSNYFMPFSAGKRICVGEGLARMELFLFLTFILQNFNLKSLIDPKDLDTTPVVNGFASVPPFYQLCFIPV
Compound,selectivity ratio [1],CC50 [2] [µM],selectivity ratio [3],"EC50 (rhinovirus B14; Rhinovirus B, H1-HeLa, 72 h) [µM]","EC50 ([4]; Rhinovirus A, H1-HeLa, 72 h) [µM]","EC50 (rhinovirus A21; Rhinovirus A, H1-HeLa, 72 h) [µM]",selectivity ratio [5],further results
CN(C)CCC=C1c2ccccc2CCc2ccccc21 [AMITRIPTYLINE],–,–,–,–,–,–,–,"inhibition at 20 min, 10 µM (CYP2C19): 90.2%"
Nc1ccc(S(=O)(=O)Nc2ccnn2-c2ccccc2)cc1 [SULFAPHENAZOLE],–,–,–,–,–,–,–,"inhibition at 20 min, 10 µM (CYP2C9): 85.8%"
CC(C)(C)C1CCc2c(sc3c2c(=O)n(C2CC2)c2nncn32)C1 (configuration not stated),4.6,35.5,8.2,15,4.3,7.7,2.3,–
CC(C)(C)C1CCc2c(sc3c2c(=O)n(C2CCCC2)c2nncn32)C1 (configuration not stated),–,> 100,> 8.2,> 100,12.1,> 100,–,–
CCCn1c(=O)c2c3c(sc2n2cnnc12)CC(C(C)(C)C)CC3 (stereo in doubt; 2c-1),–,–,–,–,–,–,–,Ratio CC50/EC50 [1]: > 28.5; CC50 (H1-HeLa): > 100 µM; Ratio CC50/EC50 [3]: > 58.8; EC50 (rhinovirus B14; h1-hela): 3.7 µM; EC50 ([4]; h1-hela): 1.7 µM; EC50 (rhinovirus A21; h1-hela): 3.5 µM; Ratio CC50/EC50 [5]: > 27
CCCCn1c(=O)c2c3c(sc2n2cnnc12)CC(C(C)(C)C)CC3 (configuration not stated),–,> 100,> 50,2.2,2,> 100,> 45.4,EC50 (Coxsackievirus B1): > 22.9 µM; EC50 (Poliovirus 3): 2.55 µM
CC(C)Cn1c(=O)c2c3c(sc2n2cnnc12)CC(C(C)(C)C)CC3 (configuration not stated),> 19.6,> 100,> 45.4,4.2,2.2,5.1,> 23.8,–
CC(C)CCn1c(=O)c2c3c(sc2n2cnnc12)CC(C(C)(C)C)CC3 (configuration not stated),–,> 100,–,> 100,> 100,> 100,–,–
CC(C)(C)C1CCc2c(sc3c2c(=O)n(-c2ccccc2)c2nncn32)C1 (configuration not stated),3.6,18.7,8.1,5,2.3,5.1,3.7,–
